Data published in ChEMBL document CHEMBL1124642 (1989).
The source made the active and inactive calls. The calls are words filed in the database; no cut-off is given here.

How the values were obtained:
[1] = organism: Cavia porcellus; test: Effective dose for guinea pig ileum contractions; format: functional; conditions: for EC50: read-out: ED50 (the source's name)
[2] = biological target: Muscarinic acetylcholine receptor (Homo sapiens) (UniProt P20309+P08173+P11229+P08172+P08912); test: Tested in vitro for agonistic effect on Muscarinic acetylcholine receptor of guinea pig ileum; IA = Inactive; format: functional, tissue-based; conditions: Cavia porcellus, target entry is the homologue from another species

SMILES	EC50 [1]	also measured
CCN1C(=O)OCC1Cc1cncn1C (stereo not given)	1 µM	–
CCN1C(=O)OCC1Cc1cn(Cc2ccccc2)c[n+]1C (stereo not given)	–	ED50 [2]: inactive
CCN1C(=O)OCC1Cc1cn(C)cn1 (stereo not given)	14 µM	–
CCN1C(=O)OCC1Cc1c[nH]cn1 (stereo not given)	180 µM	–
CCN1C(=O)OCC1Cc1cn(Cc2ccccc2)cn1 (stereo not given)	–	ED50 [1]: inactive
